Experiments:
[1] = target: T1, Corticotropin-releasing factor receptor 1 (Homo sapiens, UniProt P34998); assay: Displacement of ovine [125I]CRF from human CRF1 receptor expressed in CHO cells; format: cell-based
T1 sequence (P34998 whole entry): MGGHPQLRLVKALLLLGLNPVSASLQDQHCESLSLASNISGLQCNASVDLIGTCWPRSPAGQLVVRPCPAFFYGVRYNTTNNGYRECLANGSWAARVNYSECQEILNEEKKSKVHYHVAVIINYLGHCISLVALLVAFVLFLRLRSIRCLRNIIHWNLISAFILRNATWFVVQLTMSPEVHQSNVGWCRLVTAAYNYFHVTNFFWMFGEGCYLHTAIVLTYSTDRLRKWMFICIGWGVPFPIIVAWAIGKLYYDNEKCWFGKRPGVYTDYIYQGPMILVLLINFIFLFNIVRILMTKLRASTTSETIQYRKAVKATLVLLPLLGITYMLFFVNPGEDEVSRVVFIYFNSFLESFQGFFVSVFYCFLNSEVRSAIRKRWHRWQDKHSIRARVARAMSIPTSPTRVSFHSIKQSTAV

Mus musculus [2] = assay: Ex vivo displacement of [125I]-sauvagine from CRF1 receptor in mouse Olfactory bulb at 30 mg/kg, po administered 60 mins before mouse decapitation and measured after 2 hrs by gamma scintillation counting; format: functional
[3] = Ratio of drug uptake in brain to plasma of mouse at 30 mg/kg, po; format: ADME, organism-based; design: dose 30 mg/kg, route oral; conditions: read-out: BBB
Mus musculus [4] = assay: Ex vivo displacement of [125I]-sauvagine from CRF1 receptor in mouse pituitary gland at 30 mg/kg, po administered 60 mins before mouse decapitation and measured after 2 hrs by gamma scintillation counting; format: functional
Mus musculus [5] = assay: Ex vivo displacement of [125I]-sauvagine from CRF1 receptor in mouse frontal cortex at 30 mg/kg, po administered 60 mins before mouse decapitation and measured after 2 hrs by gamma scintillation counting; format: functional

| IC50 [1] [µM] | SMILES | other results |
| --- | --- | --- |
| 7.7 | CCN(CC)c1nc2c(c(-c3c(C)cc(C)cc3C)cn2C)c(=O)n1C |  |
| 0.12 | CCCN(CCC)c1nc2c(c(-c3c(C)cc(C)cc3C)cn2C)c(=O)n1C | inhibition in vivo at 30 mg/kg (Mus musculus [2]): 22%; Kp [3]: 0.42; inhibition in vivo at 30 mg/kg (Mus musculus [4]): 53%; inhibition in vivo at 30 mg/kg (Mus musculus [5]): 35% |
| 0.97 | CCCCN(CCCC)c1nc2c(c(-c3c(C)cc(C)cc3C)cn2C)c(=O)n1C |  |
| 0.14 | Cc1cc(C)c(-c2cn(C)c3nc(N(CC4CC4)CC4CC4)n(C)c(=O)c23)c(C)c1 |  |
| 3.8 | Cc1cc(C)c(-c2cn(C)c3nc(N4CCCCC4)n(C)c(=O)c23)c(C)c1 |  |
| 1.1 | CCCN(CCC)c1nc2c(c(-c3c(C)cc(C)cc3C)c(C)n2C)c(=O)n1C |  |
| 3.3 | CCCN(CCC)c1nc2c(c(-c3ccc(C)cc3C)c(C)n2C)c(=O)n1C |  |
| 1.6 | CCCN(CCC)c1nc2c(c(-c3ccc(C)cc3C)cn2C)c(=O)n1C |  |
| 3.1 | CCCN(CCC)c1nc2c(c(-c3c(OC)cc(OC)cc3OC)cn2C)c(=O)n1C |  |
| 3 | CCCN(CCC)c1nc2c(c(-c3ccc(OC)cc3OC)cn2C)c(=O)n1C |  |
| 3 | CCCN(CCC)c1nc2c(c(-c3ccc(C(F)(F)F)cc3C(F)(F)F)cn2C)c(=O)n1C |  |
| 0.092 | CCC(CC)Oc1cc(C)nc(Oc2c(C)cc(C)cc2C)c1C |  |
| 0.011 | CCCCN(CC)c1nc(C)nc2c1c(C)cn2-c1c(C)cc(C)cc1C [CP-154526] |  |

— ChEMBL document CHEMBL1759941, “Discovery of pyrrolo[2,3-d]pyrimidin-4-ones as corticotropin-releasing factor 1 receptor antagonists with a carbonyl-based hydrogen bonding acceptor” (Bioorg Med Chem Lett, 2011)
